Assay results as given in paper PMC5681660, “Reduced hepatitis B and D viral entry using clinically applied drugs as novel inhibitors of the bile acid transporter NTCP” (Scientific Reports, 2017).
Counter-ions that a name gives are not always drawn.

Molecular target: T1, human NTCP (Homo sapiens, UniProt Q14973)
T1 sequence (Q14973 1-349): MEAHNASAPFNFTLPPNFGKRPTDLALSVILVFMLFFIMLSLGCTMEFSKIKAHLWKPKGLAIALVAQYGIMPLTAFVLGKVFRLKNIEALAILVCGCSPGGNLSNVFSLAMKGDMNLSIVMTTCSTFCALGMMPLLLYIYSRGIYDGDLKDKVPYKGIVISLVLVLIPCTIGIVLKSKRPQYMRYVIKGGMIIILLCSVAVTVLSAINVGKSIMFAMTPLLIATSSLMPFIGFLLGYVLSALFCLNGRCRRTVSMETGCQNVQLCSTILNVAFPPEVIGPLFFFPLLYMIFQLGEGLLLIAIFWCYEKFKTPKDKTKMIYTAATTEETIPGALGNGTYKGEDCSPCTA
Assay: Screening taurocholate uptake assay (96-well, [14C]taurocholate, 10 µM drug)
Conditions: for B-score functional assay: 10 µM drug

[1] = ranking over the functional and the binding screening assay
[2] = combined ranking of functional and binding screening assays
[3] = screening taurocholate uptake, B-score

| Compound | Ranking score [1] | B-score functional assay (screening taurocholate uptake) | Ranking score [2] | further results |
| --- | --- | --- | --- | --- |
| COc1ccc(C(=O)CC(=O)c2ccc(C(C)(C)C)cc2)cc1 [Avobenzone] | 206.26 | -0.955 | – | – |
| Cc1cccc(Nc2ccncc2S(=O)(=O)NC(=O)NC(C)C)c1 [Torsemide] | – | -1.122 | 467.226 | – |
| CS(=O)(=O)OCCCCOS(C)(=O)=O [Busulfan] | 269.796 | -1.026 | – | – |
| NC(=O)C[S+]([O-])C(c1ccccc1)c1ccccc1 (stereo not drawn) [Modafinil] | – | 2.253 | 485.699 | – |
| CCc1cccc(CC)c1NC(=O)CN(CC(=O)O)CC(=O)O [Etifenin] | – | -0.065 | 532.717 | – |
| CC(=O)N[C@@H](CS)C(=O)O [Acetylcysteine] | – | -1.045 | 542.19 | – |
| C[N+]1(C)CCOC(O)(c2ccc(-c3ccc(C4(O)C[N+](C)(C)CCO4)cc3)cc2)C1.[Br-].[Br-] (stereo not drawn) [Hemicholinium bromide] | 262.621 | -3 | – | – |
| CN1CCN(C(c2ccccc2)c2ccccc2)CC1.Cl [Cyclizine hydrochloride] | – | -0.953 | 578.424 | – |
| CCc1cc(C(N)=S)ccn1 [Ethionamide] | 210.286 | 0.084 | – | – |
| CCc1nn(CCCN2CCN(c3cccc(Cl)c3)CC2)c(=O)n1CCOc1ccccc1 [Nefazodone HCl] | 227.321 | -1.389 | – | – |
| Cc1cccc(C)c1NC(=O)CN1CCN(CCCC(c2ccc(F)cc2)c2ccc(F)cc2)CC1 [Lidoflazine] | – | -0.817 | 479.588 | – |
| CC(=O)Nc1ccc(OCC(O)CNC(C)C)cc1 (stereo not drawn) [Practolol] | 213.764 | -2.472 | – | – |
| CCCCCC[C@H]1C(=O)O[C@H](C)[C@H](NC(=O)c2cccc(NC=O)c2O)C(=O)O[C@@H](C)[C@@H]1OC(=O)CC(C)C [Antimycin A] | 15.6525 | -8.175 | – | – |
| CCCc1nc2c(C)cc(-c3nc4ccccc4n3C)cc2n1Cc1ccc(-c2ccccc2C(=O)O)cc1 [Telmisartan] | 165.804 | -4.106 | – | – |
| CCOC(=O)OC(C)OC(=O)[C@@H]1N2C(=O)[C@@H](NC(=O)[C@H](N)c3ccccc3)[C@H]2SC1(C)C (stereo partly drawn) [Bacampicillin hydrochloride] | – | -0.626 | 500.635 | – |
| CNC(=O)Oc1ccc2c(c1)[C@]1(C)CCN(C)[C@@H]1N2C [Eserine hemisulfate salt] | 269.255 | -0.074 | – | – |
| C=C1C[C@@H]2[C@H](CC[C@]3(C)C(=O)CC[C@@H]23)[C@@]2(C)C=CC(=O)C=C12 [Exemestane] | – | -0.634 | 568.146 | – |
| CC1(C)S[C@@H]2[C@H](NC(=O)[C@H](NC(=O)N3CCNC3=O)c3ccccc3)C(=O)N2[C@H]1C(=O)O [Azlocillin sodium salt] | 129.337 | -0.407 | – | – |
| R(-) Apomorphine hydrochloride hemihydrate | – | – | 1173.62 | B-score functional assay [3]: 2.876 |
| CNCC[C@@H](Oc1ccccc1C)c1ccccc1 [Tomoxetine hydrochloride] | – | 3.106 | 493.908 | – |
| OCCN1C[C@H](O)[C@@H](O)[C@H](O)[C@H]1CO [Miglitol] | – | -1.145 | 510.427 | – |
| Verteporfin | 33.9116 | -2.252 | – | – |
| COC(=O)Nc1nc2ccc(Sc3ccccc3)cc2[nH]1 [Fenbendazole] | – | – | 1220.76 | B-score functional assay [3]: 1.989 |

| Compound | Ranking score [1] | B-score functional assay (screening taurocholate uptake) | Ranking score [2] | further results |
| --- | --- | --- | --- | --- |
| COC(=O)[C@@H]1[C@H]2C[C@H]3c4[nH]c5ccccc5c4CCN3C[C@@H]2CC[C@@H]1O [Yohimbine hydrochloride] | 229.785 | -1.965 | – | – |
| CCOC(=O)OC(C)OC1=C(C(=O)Nc2ccccn2)N(C)S(=O)(=O)c2ccccc21 (stereo not drawn) [Ampiroxicam] | – | 0.098 | 519.584 | – |
| O=C(N[C@H](CO)[C@H](O)c1ccc([N+](=O)[O-])cc1)C(Cl)Cl [Chloramphenicol] | – | 2.451 | 594.757 | – |
| CC(C)NCC(O)c1cc(O)cc(O)c1.CC(C)NCC(O)c1cc(O)cc(O)c1.O=S(=O)(O)O (stereo not drawn) | – | 0.057 | 489.878 | – |
| COCCOC(=O)C1=C(C)NC(C)=C(C(=O)OC/C=C/c2ccccc2)C1c1cccc([N+](=O)[O-])c1 (stereo not drawn) [Cilnidipine] | – | 0.219 | 582.255 | – |
| NC(=O)OCCCc1ccccc1 [Phenprobamate] | – | 0.708 | 613.275 | – |
| CN(C)CCOc1ccc(/C(=C(/CCCl)c2ccccc2)c2ccccc2)cc1 [Toremifene] | – | 0.057 | 537.181 | – |
| CO/N=C(\C(=O)N[C@@H]1C(=O)N2C(C(=O)O)=C(C[N+]3(C)CCCC3)CS[C@H]12)c1csc(N)n1 [Cefepime hydrochloride] | – | – | 1157.98 | B-score functional assay [3]: 1.484 |
| CC[N+](C)(CC)CCC[n+]1c(-c2ccccc2)c2cc(N)ccc2c2ccc(N)cc21.[I-].[I-] [Propidium iodide] | – | -1.35 | 504.845 | – |
| CC(C)(C)NC[C@@H](O)COc1cccc2c1CCCC2=O.Cl [(+) -Levobunolol hydrochloride] | – | -1.002 | 464.377 | – |
| CCCOc1ccc2nc(NC(=O)OC)[nH]c2c1 [Oxibendazol] | 199.274 | -0.538 | – | – |
| CCOCCn1c(N2CCCN(C)CC2)nc2ccccc21 [Emedastine] | – | -0.5 | 501.772 | – |
| NC(=O)NC1NC(=O)NC1=O (stereo not drawn) [Allantoin] | 134.967 | -2.549 | – | – |
| Cc1ccnc2c1NC(=O)c1cccnc1N2C1CC1 [Nevirapine] | – | -1.052 | 548.284 | – |
| Nc1c2c(nc3ccccc13)CCCC2O.O=C(O)/C=C\C(=O)O (racemic) [Hydroxytacrine maleate (R,S)] | 180.3 | 2.059 | – | – |
| Oc1c(I)cc(Cl)c2cccnc12 [Clioquinol] | – | 0.225 | 627.53 | – |
| C[C@@H]1CCC[C@H](C)N1NC(=O)c1ccc(Cl)c(S(N)(=O)=O)c1 [Clopamide] | 216.069 | -0.164 | – | – |
| c1ccc(C2CN3CCSC3=N2)cc1 (stereo not drawn) [Tetramisole hydrochloride] | 250.531 | -2.419 | – | – |
| COc1ccc(C(CN(C)C)C2(O)CCCCC2)cc1 (stereo not drawn) [Venlafaxine] | – | – | – | Ranking score (combined ranking from functional and binding screening assays): 459.852; B-score functional assay (screen, taurocholate uptake): -0.102 |
| O=C(O)CCCc1ccc(N(CCCl)CCCl)cc1 [Chlorambucil] | 169.183 | -1.869 | – | – |
| C[C@]12CC[C@@H]3c4ccc(OS(=O)(=O)O)cc4CC[C@H]3[C@@H]1CCC2=O [Estropipate] | 54.037 | -4.027 | – | – |
| CC(C)CC(N(C)C)C1(c2ccc(Cl)cc2)CCC1.Cl (stereo not drawn) [Sibutramine HCl] | 211.232 | -0.386 | – | – |
